The values that follow come from patent publication US20250214991A1 (Oncopia Therapeutics, Inc. d/b/a/ SK Life Science Labs, priority 2022, published 2025).

For one experiment, the target named is CRBN/DDB1 (Homo sapiens (Human), UniProt Q96SW2). As to the kind of experiment: IC50 measurements for binding to CRBN/DDB1 (HTRF). As to conditions: His tagged CRBN+DDB, Cy5-labeled Thalidomide probe, one hour. The gist of the method:
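HTRF competition binding with 2 nM His-tagged CRBN-DDB1 complex, 60 nM Cy5-thalidomide probe and 0.4 nM anti-His Tb cryptate in 50 mM HEPES pH 7.5, 1 mM TCEP, 0.01% Brij-35, 50 mM NaCl, 0.1% BSA. Read after 1 h at room temperature; IC50 from four-parameter dose-response fit.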

Experiment [1] concerns the target T1, IKZF2 (Homo sapiens (Human), UniProt Q96SW2+Q9UKS7). Description: In vitro IKZF2 HiBit Assay (HEK293T Flp-in-HiBiT cells). In kind it is cell-based. As to conditions: HEK293T Flp-in-HiBiT cells, 6 hrs incubation; for DC50: read-out: IKZF2 HiBit DC50; for Dmax: HEK-293T, read-out: IKZF2 HiBit Dmax (%). The gist of the method: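 HEK293T Flp-in cells carrying an endogenous N-terminal HiBiT tag on IKZF2 were exposed to compound for 6 h at 0.1% DMSO. The dilution series was 11 doses at 3-fold, diluted from 1 mM. Nano-Glo HiBiT lytic luminescence, normalized to DMSO, gave DC50 for 50% degradation and Dmax across the concentration range, both reported in letter bins.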

Experiment [2] addresses T1, IKZF2. Description: In vitro IKZF2 FACS Assay in Jurkat cells. The format is cell-based. The following applies: 24 hrs; for DC50: half maximal degradation concentration; for Dmax: maximal degradation percentage. How it is done:
In vitro IKZF2 FACS Assay
DC50, A: <1 nM; B: 1-10 nM; C: 10-100 nM; D: 100-1000 nM; E: >1000 nM. Dmax, A: >80%; B: 60-80%; C: 40-60%; D: 20-40%; E: <20%.

The target of a further experiment is IKZF1 (Homo sapiens (Human), UniProt Q13422+Q96SW2). As to the kind of experiment: In vitro IKZF1 HiBit Assay (HEK293T Flp-in-HiBiT-IKZF1 stable cell line). The format is cell-based. The following applies: HEK293T Flp-in-HiBiT-IKZF1 stable cell line, 6 hrs incubation; for DC50: read-out: IKZF1 HiBit DC50; for Dmax: HEK-293T, read-out: IKZF1 HiBit Dmax (%). The gist of the method:
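HEK293T Flp-in cells carrying N-terminal HiBiT-tagged IKZF1 were exposed to compound (0.1% DMSO) for 6 h at 3000 cells/well. HiBiT luminescence was read after lytic LgBiT detection. DC50 and Dmax were taken from DMSO-normalized dose-response curves.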

Chain of IKZF1 (Q13422 whole entry): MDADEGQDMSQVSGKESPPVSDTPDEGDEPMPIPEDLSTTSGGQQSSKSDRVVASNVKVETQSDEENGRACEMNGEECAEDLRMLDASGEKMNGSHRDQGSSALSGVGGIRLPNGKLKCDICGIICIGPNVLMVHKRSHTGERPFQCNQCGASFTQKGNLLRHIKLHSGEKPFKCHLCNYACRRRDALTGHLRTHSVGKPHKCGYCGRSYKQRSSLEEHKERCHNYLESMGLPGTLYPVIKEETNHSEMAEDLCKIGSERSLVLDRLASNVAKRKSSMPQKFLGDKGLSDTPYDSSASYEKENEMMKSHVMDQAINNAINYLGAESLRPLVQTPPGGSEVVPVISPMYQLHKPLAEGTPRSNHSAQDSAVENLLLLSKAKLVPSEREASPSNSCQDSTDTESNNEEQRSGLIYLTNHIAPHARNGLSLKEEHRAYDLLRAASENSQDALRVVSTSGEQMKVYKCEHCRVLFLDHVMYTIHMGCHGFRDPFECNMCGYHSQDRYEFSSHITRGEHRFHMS
Chain of IKZF1 (Q96SW2 whole entry): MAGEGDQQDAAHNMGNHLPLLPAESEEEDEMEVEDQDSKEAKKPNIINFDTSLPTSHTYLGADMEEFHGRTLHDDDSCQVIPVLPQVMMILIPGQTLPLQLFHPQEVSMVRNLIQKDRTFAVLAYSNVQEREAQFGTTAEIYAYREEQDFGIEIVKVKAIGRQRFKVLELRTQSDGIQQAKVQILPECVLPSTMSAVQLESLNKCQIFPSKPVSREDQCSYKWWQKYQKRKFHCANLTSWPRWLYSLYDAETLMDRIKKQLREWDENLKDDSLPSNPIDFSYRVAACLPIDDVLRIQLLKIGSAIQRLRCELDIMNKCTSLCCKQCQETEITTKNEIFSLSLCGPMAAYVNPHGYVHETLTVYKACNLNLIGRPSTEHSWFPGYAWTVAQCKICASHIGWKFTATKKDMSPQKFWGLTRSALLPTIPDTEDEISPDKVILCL
Chain of IKZF1 (Q16531 2-1140 partner): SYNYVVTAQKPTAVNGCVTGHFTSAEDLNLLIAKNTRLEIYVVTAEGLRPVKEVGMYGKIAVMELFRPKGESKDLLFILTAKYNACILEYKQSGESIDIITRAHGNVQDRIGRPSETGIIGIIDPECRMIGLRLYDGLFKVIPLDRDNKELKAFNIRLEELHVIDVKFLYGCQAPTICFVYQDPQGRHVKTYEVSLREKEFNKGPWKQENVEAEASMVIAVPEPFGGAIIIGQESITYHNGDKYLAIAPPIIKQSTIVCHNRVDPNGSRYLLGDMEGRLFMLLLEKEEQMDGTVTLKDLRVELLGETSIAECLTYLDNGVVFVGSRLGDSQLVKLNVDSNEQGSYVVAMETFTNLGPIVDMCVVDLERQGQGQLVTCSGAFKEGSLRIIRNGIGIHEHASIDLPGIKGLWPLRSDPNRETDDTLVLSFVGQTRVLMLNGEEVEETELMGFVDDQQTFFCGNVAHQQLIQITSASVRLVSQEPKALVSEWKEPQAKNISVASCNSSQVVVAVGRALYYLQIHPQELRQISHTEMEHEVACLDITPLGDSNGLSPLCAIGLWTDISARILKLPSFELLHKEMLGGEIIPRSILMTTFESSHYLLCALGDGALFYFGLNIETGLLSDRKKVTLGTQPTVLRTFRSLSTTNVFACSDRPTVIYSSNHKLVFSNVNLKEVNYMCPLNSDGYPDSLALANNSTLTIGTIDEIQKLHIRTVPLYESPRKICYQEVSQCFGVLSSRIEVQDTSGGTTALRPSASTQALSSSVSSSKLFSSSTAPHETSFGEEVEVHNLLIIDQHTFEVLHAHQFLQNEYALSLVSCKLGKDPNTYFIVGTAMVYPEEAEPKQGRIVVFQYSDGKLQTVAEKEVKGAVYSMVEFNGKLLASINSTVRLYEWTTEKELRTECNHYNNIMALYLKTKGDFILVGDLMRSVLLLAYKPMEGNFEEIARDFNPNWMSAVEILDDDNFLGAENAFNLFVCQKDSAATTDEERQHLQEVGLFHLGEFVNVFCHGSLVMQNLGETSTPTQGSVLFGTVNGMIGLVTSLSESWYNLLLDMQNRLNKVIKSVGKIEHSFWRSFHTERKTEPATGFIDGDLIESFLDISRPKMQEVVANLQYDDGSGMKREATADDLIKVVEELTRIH
T1 sequence (Q9UKS7 whole entry): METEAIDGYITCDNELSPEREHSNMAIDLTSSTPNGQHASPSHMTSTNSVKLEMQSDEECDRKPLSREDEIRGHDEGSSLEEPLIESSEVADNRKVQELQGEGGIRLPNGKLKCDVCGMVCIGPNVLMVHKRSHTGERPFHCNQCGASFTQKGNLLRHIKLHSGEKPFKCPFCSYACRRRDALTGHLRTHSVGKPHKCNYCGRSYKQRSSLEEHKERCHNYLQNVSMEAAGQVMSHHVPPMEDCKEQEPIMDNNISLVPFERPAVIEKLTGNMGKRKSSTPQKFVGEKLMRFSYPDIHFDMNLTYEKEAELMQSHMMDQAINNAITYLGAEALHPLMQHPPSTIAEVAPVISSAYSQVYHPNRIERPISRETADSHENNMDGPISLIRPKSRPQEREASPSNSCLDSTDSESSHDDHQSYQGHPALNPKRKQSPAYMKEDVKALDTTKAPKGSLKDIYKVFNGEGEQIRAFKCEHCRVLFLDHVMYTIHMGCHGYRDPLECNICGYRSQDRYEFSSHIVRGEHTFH
T1 sequence (Q96SW2 whole entry): as the sequence (Q96SW2 whole entry) above
T1 sequence (Q16531 2-1140 partner): as the sequence (Q16531 2-1140 partner) above
Chain of CRBN/DDB1 (Q96SW2 whole entry, species assumed): as the sequence (Q96SW2 whole entry) above
Chain of CRBN/DDB1 (Q16531 whole entry partner, species assumed): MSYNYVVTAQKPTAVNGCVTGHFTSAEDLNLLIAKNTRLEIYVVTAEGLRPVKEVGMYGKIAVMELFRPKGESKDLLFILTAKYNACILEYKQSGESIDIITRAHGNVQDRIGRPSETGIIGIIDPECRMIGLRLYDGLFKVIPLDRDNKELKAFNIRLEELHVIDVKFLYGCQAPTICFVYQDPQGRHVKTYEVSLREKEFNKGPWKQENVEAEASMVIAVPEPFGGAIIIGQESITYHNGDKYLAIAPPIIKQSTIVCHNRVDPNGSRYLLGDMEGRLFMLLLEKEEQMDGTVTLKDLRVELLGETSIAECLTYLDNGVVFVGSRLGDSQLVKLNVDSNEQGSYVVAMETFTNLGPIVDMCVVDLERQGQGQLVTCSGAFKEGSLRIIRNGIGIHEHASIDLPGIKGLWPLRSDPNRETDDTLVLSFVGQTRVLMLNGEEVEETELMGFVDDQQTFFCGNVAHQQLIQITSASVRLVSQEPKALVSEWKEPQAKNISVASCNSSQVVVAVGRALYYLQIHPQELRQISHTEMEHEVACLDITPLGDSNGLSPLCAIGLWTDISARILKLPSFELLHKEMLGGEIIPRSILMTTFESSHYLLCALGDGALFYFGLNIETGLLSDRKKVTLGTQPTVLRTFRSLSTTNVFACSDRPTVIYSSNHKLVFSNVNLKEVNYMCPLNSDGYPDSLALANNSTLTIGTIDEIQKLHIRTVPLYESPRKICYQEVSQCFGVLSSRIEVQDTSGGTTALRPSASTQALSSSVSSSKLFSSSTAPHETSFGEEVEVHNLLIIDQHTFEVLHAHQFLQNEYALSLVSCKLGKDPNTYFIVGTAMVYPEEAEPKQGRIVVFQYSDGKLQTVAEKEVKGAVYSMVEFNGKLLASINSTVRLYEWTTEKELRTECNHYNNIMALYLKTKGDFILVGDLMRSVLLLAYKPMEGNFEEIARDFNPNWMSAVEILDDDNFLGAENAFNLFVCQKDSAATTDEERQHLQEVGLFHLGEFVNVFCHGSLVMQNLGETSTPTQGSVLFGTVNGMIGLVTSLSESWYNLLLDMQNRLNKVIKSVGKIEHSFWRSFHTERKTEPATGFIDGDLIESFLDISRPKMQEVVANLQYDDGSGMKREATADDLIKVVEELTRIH

As to `O=C1CCC(N2Cc3cc(-c4cc(CN5CCC(O)C5)c5ccn(C6COC6)c5n4)ccc3C2=O)C(=O)N1` (stereo not drawn) [Example 158, 3-(5-(4-((3-hydroxypyrrolidin-1-yl)methyl)-1-(oxetan-3-yl)-1H-pyrrolo[2,3-b]pyridin-6-yl)-1-oxoisoindolin-2-yl) piperidine-2,6-dione], the IC50 on CRBN/DDB1 fell in the range of 100 to 500 nM. In addition, the DC50 at IKZF2 [1] is 10 to 100 nM; at IKZF2 [2], 10 to 100 nM; on IKZF1, more than 10 µM. For the same compound, the Dmax on IKZF2 [1] is 60 to 80%; at IKZF2 [2] it was more than 80%; at IKZF1, less than 20%.
The compound `O=C1CCC(N2Cc3cc(-c4cc(CN5CCCC5)c5ccn(C6CS(=O)(=O)C6)c5n4)ccc3C2=O)C(=O)N1` (stereo not drawn) [Example 176, 3-(5-(1-(1,1-dioxidothietan-3-yl)-4-(pyrrolidin-1-ylmethyl)-1H-pyrrolo[2,3-b]pyridin-6-yl)-1-oxoisoindolin-2-yl) piperidine-2,6-dione] yielded an IC50 on CRBN/DDB1 of 500 to 1000 nM. The DC50 at IKZF2 [1] was in the range of 1 to 10 nM; on IKZF2 [2], 1 to 10 nM; on IKZF1, 0.01 to 0.1 µM. The Dmax was more than 80% at IKZF2 [1], 60 to 80% on IKZF2 [2] and 20 to 40% on IKZF1.
Compound `Nc1n[nH]c2c(CN3CCC(F)CC3)cc(-c3ccc4c(c3)CN(C3CCC(=O)NC3=O)C4=O)nc12` (stereo not drawn) [Example 212, 3-(5-(3-amino-7-((4-fluoropiperidin-1-yl)methyl)-1H-pyrazolo[4,3-b]pyridin-5-yl)-1-oxoisoindolin-2-yl) piperidine-2,6-dione] returned a concentration for half-maximal inhibition (IC50) at CRBN/DDB1 of less than 100 nM. The DC50 on IKZF2 [1] fell in the range of 1 to 10 nM; at IKZF2 [2] it was 10 to 100 nM; at IKZF1, 0.001 to 0.01 µM. Moreover, the values for the Dmax on IKZF2 [1], at IKZF2 [2] and at IKZF1 were 60 to 80%, more than 80% and 20 to 40%, respectively.
On to `O=C1CCC(N2Cc3cc(-c4cc(CN5CC6COCC(C6)C5)c5cc[nH]c5n4)ccc3C2=O)C(=O)N1` (stereo not drawn) [Example 121, 3-(5-(4-((3-oxa-7-azabicyclo[3.3.1]nonan-7-yl)methyl)-1H-pyrrolo[2,3-b]pyridin-6-yl)-1-oxoisoindolin-2-yl) piperidine-2,6-dio], for which the IC50 at CRBN/DDB1 lay in the range of 1000 to 5000 nM. Besides, the values for the DC50 at IKZF2 [1], on IKZF2 [2] and at IKZF1 were 1 to 10 nM, 10 to 100 nM and more than 10 µM, respectively. In addition, the Dmax was more than 80% at IKZF2 [1], more than 80% at IKZF2 [2] and less than 20% at IKZF1.
With `O=C1CCC(N2Cc3cc(-c4cc(CN5CC6COCC6C5)c5ccn(C6COC6)c5n4)ccc3C2=O)C(=O)N1` (stereo not drawn) [Example 186, 3-(5-(1-(oxetan-3-yl)-4-((tetrahydro-1H-furo[3,4-c]pyrrol-5 (3H)-yl)methyl)-1H-pyrrolo[2,3-b]pyridin-6-yl)-1-oxoisoindolin-2-yl) piperidine-2,6-dione], on CRBN/DDB1, the IC50 fell in the range of 100 to 500 nM. In addition, the DC50 at IKZF2 [1] is 1 to 10 nM; on IKZF2 [2], 1 to 10 nM; at IKZF1, more than 10 µM. Moreover, the Dmax was more than 80% at IKZF2 [1], more than 80% on IKZF2 [2] and less than 20% at IKZF1.
`O=C1CCC(N2Cc3cc(-c4cc(CN5CCCC5)c5cn[nH]c5n4)ccc3C2=O)C(=O)N1` (stereo not drawn) [Example 105, 3-(1-oxo-5-(4-(pyrrolidin-1-ylmethyl)-1H-pyrazolo[3,4-b]pyridin-6-yl)isoindolin-2-yl) piperidine-2,6-dione] yielded an IC50 at CRBN/DDB1 of 500 to 1000 nM. The DC50 at IKZF2 [1] is 1 to 10 nM; on IKZF2 [2] it was 1 to 10 nM; at IKZF1, 1 to 10 µM. For the same compound, the Dmax was more than 80% on IKZF2 [1], more than 80% on IKZF2 [2] and 20 to 40% at IKZF1.
Compound `O=C1CCC(N2Cc3cc(-c4cc(CN5CCCCC5)cc5cncn45)ccc3C2=O)C(=O)N1` (stereo not drawn) [Example 3, 3-(1-oxo-5-(7-(piperidin-1-ylmethyl)imidazo[1,5-a]pyridin-5-yl)isoindolin-2-yl) piperidine-2,6-dione] displayed an IC50 on CRBN/DDB1 of 100 to 500 nM. Further, the DC50 is 10 to 100 nM on IKZF2 [1], 10 to 100 nM at IKZF2 [2] and more than 10 µM on IKZF1. Further, the Dmax is 60 to 80% on IKZF2 [1], 40 to 60% on IKZF2 [2] and less than 20% on IKZF1.
At CRBN/DDB1, `O=C1CCC(N2Cc3cc(-c4cc(CN5CCCC5)c5ccn(C6CCC6)c5n4)ccc3C2=O)C(=O)N1` (stereo not drawn) [Example 128, 3-(5-(1-cyclobutyl-4-(pyrrolidin-1-ylmethyl)-1H-pyrrolo[2,3-b]pyridin-6-yl)-1-oxoisoindolin-2-yl) piperidine-2,6-dione] registered an IC50 of 100 to 500 nM. In addition, the figures for the DC50 on IKZF2 [1], on IKZF2 [2] and at IKZF1 were less than 1 nM, 1 to 10 nM and 0.01 to 0.1 µM, respectively. The Dmax at IKZF2 [1] is more than 80%; on IKZF2 [2], more than 80%; at IKZF1 it was 20 to 40%.
On to `O=C1CCC(N2Cc3cc(-c4cc(CN5CCCC5)c5[nH]ncc5n4)ccc3C2=O)C(=O)N1` (stereo not drawn) [Example 307, 3-(1-oxo-5-(7-(pyrrolidin-1-ylmethyl)-1H-pyrazolo[4,3-b]pyridin-5-yl)isoindolin-2-yl) piperidine-2,6-dione], for which the IC50 at CRBN/DDB1 lay in the range of 100 to 500 nM. Also, the figures for the DC50 on IKZF2 [1], at IKZF2 [2] and at IKZF1 were 1 to 10 nM, 1 to 10 nM and 1 to 10 µM, respectively. Moreover, the Dmax is more than 80% on IKZF2 [1], more than 80% on IKZF2 [2] and 20 to 40% at IKZF1.
At CRBN/DDB1, `O=C1CCC(N2Cc3c(ccc(-c4cc(CN5CCCC5)c5ccn(C6COC6)c5n4)c3Cl)C2=O)C(=O)N1` (stereo not drawn) [Example 228, 3-(4-chloro-5-(1-(oxetan-3-yl)-4-(pyrrolidin-1-ylmethyl)-1H-pyrrolo[2,3-b]pyridin-6-yl)-1-oxoisoindolin-2-yl) piperidine-2,6-dione] came in with an IC50 of 100 to 500 nM. For the same compound, the DC50 at IKZF2 [1] is 1 to 10 nM; on IKZF2 [2], 10 to 100 nM; on IKZF1, more than 10 µM. In addition, the values for the Dmax on IKZF2 [1], at IKZF2 [2] and at IKZF1 were 60 to 80%, 60 to 80% and less than 20%, respectively.
On CRBN/DDB1, `CC(C)Nc1ccnc2c(CN3CCCC3)cc(-c3ccc4c(c3)CN(C3CCC(=O)NC3=O)C4=O)nc12` (stereo not drawn) [Example 236, 3-(5-(8-(isopropylamino)-4-(pyrrolidin-1-ylmethyl)-1,5-naphthyridin-2-yl)-1-oxoisoindolin-2-yl) piperidine-2,6-dione] gave a 50% inhibitory concentration (IC50) of 1000 to 5000 nM. Besides, the DC50 at IKZF2 [1] was 10 to 100 nM; at IKZF2 [2] it was more than 1000 nM; at IKZF1, more than 10 µM. For the same compound, the Dmax on IKZF2 [1] is 20 to 40%; on IKZF2 [2], less than 20%; at IKZF1 it was less than 20%.
The compound `Cn1ccc2c(CN3CCC3)cc(-c3ccc4c(c3)CN(C3CCC(=O)NC3=O)C4=O)nc21` (stereo not drawn) [Example 56, 3-(5-(4-(azetidin-1-ylmethyl)-1-methyl-1H-pyrrolo[2,3-b]pyridin-6-yl)-1-oxoisoindolin-2-yl) piperidine-2,6-dione] displayed an IC50 on CRBN/DDB1 of less than 100 nM. Also, the DC50 on IKZF2 [1] was less than 1 nM; on IKZF2 [2], 1 to 10 nM; on IKZF1, more than 10 µM. In addition, the Dmax at IKZF2 [1] is more than 80%; at IKZF2 [2], 60 to 80%; at IKZF1, 20 to 40%.
`O=C1CCC(N2Cc3cc(-c4cc(CN5CCC(CO)C5)c5ccn(C6COC6)c5n4)ccc3C2=O)C(=O)N1` (stereo not drawn) [Example 164, 3-(5-(4-((3-(hydroxymethyl)pyrrolidin-1-yl)methyl)-1-(oxetan-3-yl)-1H-pyrrolo[2,3-b]pyridin-6-yl)-1-oxoisoindolin-2-yl) piperidine-2,6-dione]: the IC50 at CRBN/DDB1 is 100 to 500 nM. Also, the DC50 on IKZF2 [1] fell in the range of 10 to 100 nM; on IKZF2 [2] it was 10 to 100 nM; at IKZF1, 0.1 to 1 µM. In addition, the Dmax is 60 to 80% at IKZF2 [1], more than 80% on IKZF2 [2] and 20 to 40% on IKZF1.
As to `O=C1CCC(N2Cc3cc(-c4cc(CN5CCCC5)c5nccc(OC6CCC6)c5n4)ccc3C2=O)C(=O)N1` (stereo not drawn) [Example 239, 3-(5-(8-cyclobutoxy-4-(pyrrolidin-1-ylmethyl)-1,5-naphthyridin-2-yl)-1-oxoisoindolin-2-yl) piperidine-2,6-dione], the IC50 on CRBN/DDB1 is 1000 to 5000 nM. The DC50 on IKZF2 [1] was 1 to 10 nM; on IKZF2 [2], 10 to 100 nM; at IKZF1 it was more than 10 µM. Besides, the Dmax on IKZF2 [1] was 60 to 80%; at IKZF2 [2], 60 to 80%; at IKZF1, less than 20%.
The compound `O=C1CCC(N2Cc3cc(-c4cc(CN5CCCC5)c5ccn(C6CC6)c5n4)ccc3C2=O)C(=O)N1` (stereo not drawn) [Example 119, 3-(5-(1-cyclopropyl-4-(pyrrolidin-1-ylmethyl)-1H-pyrrolo[2,3-b]pyridin-6-yl)-1-oxoisoindolin-2-yl) piperidine-2,6-dione] had an IC50 at CRBN/DDB1 of 1000 to 5000 nM. The DC50 at IKZF2 [1] is less than 1 nM; at IKZF2 [2], 1 to 10 nM; at IKZF1, 1 to 10 µM. Further, the Dmax at IKZF2 [1] was more than 80%; at IKZF2 [2], more than 80%; on IKZF1, 20 to 40%.
